According to publication PMC1950546 (Nucleic Acids Research, 2007):
Where a SMILES comes first, the peptide text is derived from it.

Assays:
PrrC = conditions: stated in the introduction; cited from earlier work
[1] = target: T1, PrrC anticodon nuclease (ACNase), His6-tagged D222E mutant (Escherichia coli, UniProt P17223, D222E); experiment: ACNase assay: inhibition of PrrC-catalyzed cleavage of tRNA^Lys or ASL analogs; format: biochemical
T1 sequence (P17223 1-396 D222E): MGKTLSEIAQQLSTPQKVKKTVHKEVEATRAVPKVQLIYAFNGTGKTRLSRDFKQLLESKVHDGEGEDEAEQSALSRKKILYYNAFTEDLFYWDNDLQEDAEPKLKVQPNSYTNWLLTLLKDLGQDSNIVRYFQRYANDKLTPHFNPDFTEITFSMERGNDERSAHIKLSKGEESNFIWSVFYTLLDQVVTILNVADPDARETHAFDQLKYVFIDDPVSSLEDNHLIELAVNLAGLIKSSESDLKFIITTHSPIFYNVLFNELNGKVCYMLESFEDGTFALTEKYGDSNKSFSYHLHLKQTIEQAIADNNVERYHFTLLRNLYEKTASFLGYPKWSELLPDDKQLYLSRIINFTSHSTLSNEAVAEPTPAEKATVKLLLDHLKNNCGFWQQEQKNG

Row | SMILES | Affinity for PrrC (range) (PrrC) | IC50 [1]
1 | Nc1ncnc2c1ncn2[C@@H]1O[C@H](COP(=O)(O)OP(=O)(O)OP(=O)(O)O)[C@@H](O)[C@H]1O [ATP] | mM-range | 
2 | Nc1nc2c(ncn2[C@@H]2O[C@H](COP(=O)(O)OP(=O)(O)OP(=O)(O)O)[C@@H](O)[C@H]2O)c(=O)[nH]1 [GTP] | mM-range | 
3 | CC(=O)N[C@@H](CCCCN)C(=O)N[C@@H](Cc1ccc(O)cc1)C(=O)NCC(=O)N[C@@H](CC(=O)O)C(=O)N[C@@H](CO)C(=O)N[C@@H](CC(N)=O)C(=O)N[C@@H](CCCCN)C(=O)N[C@@H](CO)C(=O)N[C@@H](Cc1ccccc1)C(=O)N[C@@H](CO)C(=O)N[C@@H](Cc1ccc(O)cc1)C(N)=O [LARP, Ac-KYGDSNKSFSY-NH2] (Ac-KYGDSNKSFSY-NH2) |  | ~100 µM
